In this assay the target is T1, C5AR1 (Homo sapiens, UniProt P21730).
T1 construct: host or cells: CHO-K1
T1 sequence (P21730 1-350): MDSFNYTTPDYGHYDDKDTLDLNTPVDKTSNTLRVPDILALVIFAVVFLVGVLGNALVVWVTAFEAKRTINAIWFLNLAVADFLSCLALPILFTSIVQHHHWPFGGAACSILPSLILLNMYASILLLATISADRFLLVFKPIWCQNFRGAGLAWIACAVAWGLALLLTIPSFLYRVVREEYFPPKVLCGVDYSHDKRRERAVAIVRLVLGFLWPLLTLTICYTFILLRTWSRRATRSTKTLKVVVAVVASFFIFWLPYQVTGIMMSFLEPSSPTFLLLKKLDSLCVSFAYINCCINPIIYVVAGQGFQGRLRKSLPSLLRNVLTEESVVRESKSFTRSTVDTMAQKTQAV
The assay is described as follows: In vitro assay: antagonism of C5a-induced beta-arrestin recruitment (PathHunter) in CHO-K1 C5AR1 beta-arrestin cell line. The settings on record: antagonistic activity, 1-10 nM C5a agonist, geometric mean where several measurements, read-out: C5aR IC50. In kind it is cell-based. Here is the method:
5 μl Antagonist at 6-fold end concentration or DMSO control is added to assay medium and subsequently 5 μl 1-10 nM C5a agonist at 6 fold end concentration. Cells are centrifuged for 1 min at 1000 rpm and incubated for 1.5 hour in at 37° C. Plates are equilibrated at room temperature for several minutes before adding 12 μl/well Detection Reagent (PathHunter Detection Kit, DiscoverX, Cat #93-0001). Plates are centrifuged for 1 min at 1000 rpm and incubated for 45 minutes at RT before being measured on a Fluostar Optima, BMG Labtech. IC50 values are calculated from a serial dilution range of antagonist using inhouse software and given in nmol/l.
The calculated IC50 values may fluctuate depending on the daily cellular assay performance. Fluctuations of this kind are known to those skilled in the art. Average IC50 values from several measurements are given as geometric mean values.
(In general: Activated receptors often draw arrestin, which recruitment assays turn into a signal.)

A word on the IC50: it is the concentration needed to halve the response being measured. On to `COc1nccc(C(F)F)c1N1CCC(N2C(=O)N(Cc3ccccc3C(F)(F)F)c3nn(C4CC4)cc3C2C)CC1` (single isomer, unassigned) [Example 359], for which the IC50 worked out at 0.185 µM. Under `CC1c2cn(C3CC3)nc2N(Cc2ccccc2C(F)(F)F)C(=O)N1C1CCN(c2c(F)cccc2Br)CC1` (single isomer, unassigned) [Example 360] stands 0.003 µM.

For the compound `CC1c2cn(C3CC3)nc2N(Cc2ccccc2C(F)(F)F)C(=O)N1C1CCN(c2c(F)cccc2Br)CC1` (single isomer, unassigned) [Example 361], the IC50 stood at 0.013 µM. Under `COc1nccc(C(F)(F)F)c1N1CCC(N2C(=O)N(Cc3ccccc3C(F)(F)F)c3nn(C)cc3C2C)CC1` (single isomer, unassigned) [Example 362] stands 0.009 µM. Under `COc1nccc(C(F)(F)F)c1N1CCC(N2C(=O)N(Cc3ccccc3C(F)(F)F)c3nn(C)cc3C2C)CC1` (single isomer, unassigned) [Example 363] stands 0.097 µM; under `COc1nccc(C(F)F)c1N1CCC(N2C(=O)N(Cc3ccccc3C3CC3)c3nn(C)cc3C2C)CC1` (single isomer, unassigned) [Example 367], 0.286 µM. Under `COc1nccc(C)c1N1CCC(N2C(=O)N(Cc3ccccc3C3CC3)c3nn(C)cc3C2C)CC1` (single isomer, unassigned) [Example 369] stands 0.256 µM.

Take `COc1nccc(C(F)F)c1N1CCC(N2C(=O)N(Cc3ccccc3C3CC3)c3n[nH]cc3C2C)CC1` (single isomer, unassigned) [Example 370]: the IC50 was found to be 0.019 µM. Under `COc1nccc(C(F)F)c1N1CCC(N2C(=O)N(Cc3ccccc3C3CC3)c3n[nH]cc3C2C)CC1` (single isomer, unassigned) [Example 371] stands 1.33 µM. Under `CC1c2c[nH]nc2N(Cc2ccccc2C2CC2)C(=O)N1C1CCN(c2c(F)cccc2Cl)CC1` (single isomer, unassigned) [Example 372] stands 0.011 µM; under `CC1c2c[nH]nc2N(Cc2ccccc2C2CC2)C(=O)N1C1CCN(c2c(F)cccc2Cl)CC1` (single isomer, unassigned) [Example 373], 1.01 µM; under `COc1nccc(C(F)(F)F)c1N1CCC(N2C(=O)N(Cc3ccccc3C3CC3)c3nn(C)cc3C2C)CC1` (single isomer, unassigned) [Example 374], 0.008 µM.

Take `COc1nccc(C(F)(F)F)c1N1CCC(N2C(=O)N(Cc3ccccc3C3CC3)c3nn(C)cc3C2C)CC1` (single isomer, unassigned) [Example 375]: the IC50 is 0.146 µM. For `COc1nccc(Cl)c1N1CCC(N2C(=O)N(Cc3ccccc3C(F)(F)F)c3nn(C)cc3C2C)CC1` (single isomer, unassigned) [Example 376], the IC50 was 0.005 µM. Under `COc1nccc(Cl)c1N1CCC(N2C(=O)N(Cc3ccccc3C(F)(F)F)c3nn(C)cc3C2C)CC1` (single isomer, unassigned) [Example 377] stands 0.552 µM; under `COc1nccc(Cl)c1N1CCC(N2C(=O)N(Cc3ccccc3C3CC3)c3nn(C)cc3C2C)CC1` (single isomer, unassigned) [Example 378], 0.006 µM. Take `COc1nccc(Cl)c1N1CCC(N2C(=O)N(Cc3ccccc3C3CC3)c3nn(C)cc3C2C)CC1` (single isomer, unassigned) [Example 379]: the IC50 stood at 0.412 µM. With `COc1nccc(C)c1N1CCC(N2C(=O)N(Cc3ccccc3C3CC3)c3nn(C4CC4)cc3C2C)CC1` (single isomer, unassigned) [Example 380], the IC50 was found to be 0.021 µM. Under `COc1nccc(C)c1N1CCC(N2C(=O)N(Cc3ccccc3C3CC3)c3nn(C4CC4)cc3C2C)CC1` (single isomer, unassigned) [Example 381] stands 0.19 µM. Under `COc1nccc(C(F)F)c1N1CCC(N2C(=O)N(Cc3ccccc3C3CC3)c3nn(C4CC4)cc3C2C)CC1` (single isomer, unassigned) [Example 382] stands 0.021 µM; under `COc1nccc(C(F)F)c1N1CCC(N2C(=O)N(Cc3ccccc3C3CC3)c3nn(C4CC4)cc3C2C)CC1` (single isomer, unassigned) [Example 383], 0.204 µM; under `CC1c2cn(C)nc2N(Cc2ccccc2C2CC2)C(=O)N1C1CCN(c2c(F)cccc2Br)CC1` (single isomer, unassigned) [Example 384], 0.012 µM. Under `CC1c2cn(C)nc2N(Cc2ccccc2C2CC2)C(=O)N1C1CCN(c2c(F)cccc2Br)CC1` (single isomer, unassigned) [Example 385] stands 0.491 µM. Turning to `Cc1cccc(F)c1N1CCC(N2Cc3nn(C)cc3N(Cc3ncccc3C(F)(F)F)C2=O)CC1` [Example 15], the IC50 worked out at 0.045 µM. Under `Cc1cccc(F)c1N1CCC(N2Cc3c(ncn3C)N(Cc3ccccc3C(F)(F)F)C2=O)CC1` [Example 16] stands 0.074 µM; under `COC(=O)Cn1cc2c(n1)N(Cc1ccccc1C(F)(F)F)C(=O)N(C1CCN(c3c(C)cccc3F)CC1)C2` [Example 17], 0.013 µM; under `COC(=O)Cn1cc2c(n1)CN(C1CCN(c3c(C)cccc3F)CC1)C(=O)N2Cc1ccccc1C(F)(F)F` [Example 18], 0.132 µM.

In the case of `COC(=O)Cn1ncc2c1CN(C1CCN(c3c(C)cccc3F)CC1)C(=O)N2Cc1ccccc1C(F)(F)F` [Example 19], the IC50 came out at 0.637 µM. As for `Cc1cccc(F)c1N1CCC(N2Cc3cn(CCO)nc3N(Cc3ccccc3C(F)(F)F)C2=O)CC1` [Example 20], the IC50 was 0.012 µM. On to `Cc1cccc(F)c1N1CCC(N2Cc3cn(C)nc3N(Cc3ccccc3OC3CC3)C2=O)CC1` [Example 21], for which the IC50 stood at 0.013 µM.

For the compound `Cc1cccc(F)c1N1CCC(N2Cc3cn(C)nc3N(Cc3ncccc3C(F)(F)F)C2=O)CC1` [Example 22], the IC50 came to 0.01 µM. Under `Cc1cccc(F)c1N1CCC(N2Cc3cn(CC#N)nc3N(Cc3ccccc3C(F)(F)F)C2=O)CC1` [Example 24] stands 0.015 µM. Under `Cc1cccc(F)c1N1CCC(N2Cc3cn(CC(C)(C)O)nc3N(Cc3ccccc3C(F)(F)F)C2=O)CC1` [Example 25] stands 0.018 µM; under `Cc1cccc(F)c1N1CCC(N2Cc3cn(CCN)nc3N(Cc3ccccc3C(F)(F)F)C2=O)CC1` [Example 26], 0.173 µM; under `COC(=O)C(C)(C)n1cc2c(n1)N(Cc1ccccc1C(F)(F)F)C(=O)N(C1CCN(c3c(C)cccc3F)CC1)C2` [Example 27], 0.017 µM. Under `CCOC(Cn1cc2c(n1)N(Cc1ccccc1C(F)(F)F)C(=O)N(C1CCN(c3c(C)cccc3F)CC1)C2)OCC` [Example 28] stands 0.083 µM. Take `Cc1cccc(F)c1N1CCC(N2Cc3cn(CC(N)=O)nc3N(Cc3ccccc3C(F)(F)F)C2=O)CC1` [Example 29]: the IC50 amounted to 0.103 µM. Under `Cc1cccc(F)c1N1CCC(N2Cc3cn(CC(=O)N(C)C)nc3N(Cc3ccccc3C(F)(F)F)C2=O)CC1` [Example 30] stands 0.095 µM; under `COC(=O)C(C)Cn1cc2c(n1)N(Cc1ccccc1C(F)(F)F)C(=O)N(C1CCN(c3c(C)cccc3F)CC1)C2` (centres unmarked) [Example 31], 0.013 µM; under `Cc1cccc(F)c1N1CCC(N2Cc3cn(C(C)(C)CO)nc3N(Cc3ccccc3C(F)(F)F)C2=O)CC1` [Example 32], 0.014 µM. Under `Cc1cccc(F)c1N1CCC(N2Cc3cn(CC(C)O)nc3N(Cc3ccccc3C(F)(F)F)C2=O)CC1` (centres unmarked) [Example 33] stands 0.012 µM.
